Results: patent US9637483B2, “Heterocyclic compound” (TAKEDA PHARMACEUTICAL COMPANY LIMITED, priority 2013, dated 2017)

Columns and labels:
Assay type in all cases: biochemical
JAK2 = target: T1, JAK2 (Homo sapiens, UniProt O60674); assay: JAK2 enzyme inhibition test (LANCE method); settings: 1 μM test compound; read-out: JAK2 enzyme inhibitory activity (%, 1 μM)
T1 construct: purchased Invitrogen
Protocol: (§1) JAK2 enzyme inhibitory activity of test compounds was measured by the LANCE method (PerkinElmer). First, a test compound diluted with assay buffer (50 mM HEPES (pH 7.5), 10 mM MgCl2, 1 mM EGTA, 2 mM DTT, 0.01% Tween20, 0.01% BSA) was added to a 384-well plate by 2 μL each. Then, a JAK2 (Invitrogen) solution and a fluorescence-labeled peptide substrate (ULight-JAK1, PerkinElmer) solution diluted with assay buffer to 6 ng/mL and 300 nM, respectively, were added by 2 μL each. Then, an enzyme reaction was started by adding 2 μL each of ATP solution prepared with assay buffer to 45 μM. After the reaction at room temperature for 1 hr, Detection Buffer (PerkinElmer) prepared to contain 20 mM EDTA, 4 nM europium-labeled anti-phosphotyrosine antibody (PerkinElmer) was added by 6 μL each. After standing at room temperature for 1 hr, fluorescence intensity (excitation wavelength 340 nm, fluorescence wavelength 665 nm, delay time 100 microseconds) was measured by a plate reader, Envision (PerkinElmer). The inhibitory activity of each compound was calculated as a relative activity value to the fluorescence intensity of a well free of enzyme as 100% inhibition.

JAK1 = target: T2, JAK1 (Homo sapiens, UniProt P23458); assay: JAK1 enzyme inhibition test (LANCE method); settings: 1 μM test compound; read-out: JAK1 enzyme inhibitory activity (%, 1 μM)
T2 construct: purchased Invitrogen
Protocol: as §1, with “JAK1 enzyme” for “JAK2 enzyme”, “a JAK1” for “a JAK2”, “to 187.5” for “to 6”, “to 150” for “to 45”

TYK2 = target: T3, TYK2 (Homo sapiens, UniProt P29597); assay: TYK2 enzyme inhibition test (LANCE method); settings: 1 μM test compound; read-out: TYK2 enzyme inhibitory activity (%, 1 μM)
T3 construct: purchased Invitrogen
Protocol: as §1, with “TYK2 enzyme” for “JAK2 enzyme”, “a TYK2” for “a JAK2”, “to 375” for “to 6”, “to 30” for “to 45”

JAK3 = target: T4, JAK3 (Homo sapiens, UniProt P52333); assay: JAK3 enzyme inhibition test (LANCE method); settings: 1 μM test compound; read-out: JAK3 enzyme inhibitory activity (%, 1 μM)
T4 construct: purchased Invitrogen
T4 sequence (P52333 1-1124): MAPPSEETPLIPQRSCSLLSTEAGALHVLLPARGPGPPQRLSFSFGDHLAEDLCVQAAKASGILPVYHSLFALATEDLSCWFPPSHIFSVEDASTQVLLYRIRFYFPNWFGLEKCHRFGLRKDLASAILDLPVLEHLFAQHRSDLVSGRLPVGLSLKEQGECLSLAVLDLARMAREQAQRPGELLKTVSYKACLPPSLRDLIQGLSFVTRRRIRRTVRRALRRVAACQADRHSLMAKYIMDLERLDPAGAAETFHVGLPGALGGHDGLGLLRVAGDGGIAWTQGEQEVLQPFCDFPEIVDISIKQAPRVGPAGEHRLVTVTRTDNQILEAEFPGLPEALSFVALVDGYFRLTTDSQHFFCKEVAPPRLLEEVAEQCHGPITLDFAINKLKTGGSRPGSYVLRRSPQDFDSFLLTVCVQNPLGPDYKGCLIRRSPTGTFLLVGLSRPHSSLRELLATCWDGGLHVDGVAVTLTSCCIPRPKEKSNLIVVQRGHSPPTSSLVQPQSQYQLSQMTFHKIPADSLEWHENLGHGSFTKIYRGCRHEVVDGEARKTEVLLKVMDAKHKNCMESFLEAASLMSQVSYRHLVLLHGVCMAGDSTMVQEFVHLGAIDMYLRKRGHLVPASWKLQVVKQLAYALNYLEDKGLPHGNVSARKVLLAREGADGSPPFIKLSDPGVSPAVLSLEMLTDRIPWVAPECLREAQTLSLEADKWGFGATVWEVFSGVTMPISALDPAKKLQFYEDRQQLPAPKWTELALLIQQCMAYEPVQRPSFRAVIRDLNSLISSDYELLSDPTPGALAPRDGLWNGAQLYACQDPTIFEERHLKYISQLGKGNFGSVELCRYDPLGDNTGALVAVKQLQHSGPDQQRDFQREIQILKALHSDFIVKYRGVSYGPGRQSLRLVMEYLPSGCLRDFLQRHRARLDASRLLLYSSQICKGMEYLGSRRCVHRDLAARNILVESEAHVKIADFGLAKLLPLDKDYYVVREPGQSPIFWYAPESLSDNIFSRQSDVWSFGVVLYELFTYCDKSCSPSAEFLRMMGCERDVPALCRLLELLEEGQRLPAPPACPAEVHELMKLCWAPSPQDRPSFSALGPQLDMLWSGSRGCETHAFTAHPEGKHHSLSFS
Protocol: as §1, with “JAK3 enzyme” for “JAK2 enzyme”, “a JAK3” for “a JAK2”, “to 12” for “to 6”, “to 15” for “to 45”

T3 sequence (P29597 whole entry): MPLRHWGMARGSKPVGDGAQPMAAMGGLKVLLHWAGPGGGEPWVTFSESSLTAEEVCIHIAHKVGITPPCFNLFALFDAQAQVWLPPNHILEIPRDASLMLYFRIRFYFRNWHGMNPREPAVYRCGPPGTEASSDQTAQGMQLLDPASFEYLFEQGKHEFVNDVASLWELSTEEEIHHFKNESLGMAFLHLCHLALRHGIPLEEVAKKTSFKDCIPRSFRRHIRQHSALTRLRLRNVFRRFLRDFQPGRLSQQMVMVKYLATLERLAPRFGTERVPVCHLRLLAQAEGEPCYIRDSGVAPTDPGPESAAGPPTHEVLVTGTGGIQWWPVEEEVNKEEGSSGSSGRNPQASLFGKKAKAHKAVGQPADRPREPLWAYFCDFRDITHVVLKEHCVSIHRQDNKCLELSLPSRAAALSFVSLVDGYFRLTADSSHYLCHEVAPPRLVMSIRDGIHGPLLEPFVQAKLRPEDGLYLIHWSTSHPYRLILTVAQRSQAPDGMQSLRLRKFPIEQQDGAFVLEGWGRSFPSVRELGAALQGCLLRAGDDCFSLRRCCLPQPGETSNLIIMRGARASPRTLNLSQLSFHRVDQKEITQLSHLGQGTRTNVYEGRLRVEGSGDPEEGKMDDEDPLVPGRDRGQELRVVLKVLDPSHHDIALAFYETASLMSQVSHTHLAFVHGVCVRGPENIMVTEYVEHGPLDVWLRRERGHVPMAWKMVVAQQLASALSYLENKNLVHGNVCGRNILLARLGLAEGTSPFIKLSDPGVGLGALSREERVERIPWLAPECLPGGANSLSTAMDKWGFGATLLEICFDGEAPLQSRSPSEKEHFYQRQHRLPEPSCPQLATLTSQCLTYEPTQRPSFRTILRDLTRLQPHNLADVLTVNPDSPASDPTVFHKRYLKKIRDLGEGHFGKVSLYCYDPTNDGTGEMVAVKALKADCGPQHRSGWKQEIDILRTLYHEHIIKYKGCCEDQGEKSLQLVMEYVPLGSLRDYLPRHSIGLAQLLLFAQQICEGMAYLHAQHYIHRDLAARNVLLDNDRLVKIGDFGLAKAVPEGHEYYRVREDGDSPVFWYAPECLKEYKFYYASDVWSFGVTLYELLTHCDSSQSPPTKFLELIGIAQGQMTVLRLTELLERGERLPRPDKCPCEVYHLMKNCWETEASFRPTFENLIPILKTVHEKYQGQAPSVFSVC
T1 sequence (O60674 whole entry): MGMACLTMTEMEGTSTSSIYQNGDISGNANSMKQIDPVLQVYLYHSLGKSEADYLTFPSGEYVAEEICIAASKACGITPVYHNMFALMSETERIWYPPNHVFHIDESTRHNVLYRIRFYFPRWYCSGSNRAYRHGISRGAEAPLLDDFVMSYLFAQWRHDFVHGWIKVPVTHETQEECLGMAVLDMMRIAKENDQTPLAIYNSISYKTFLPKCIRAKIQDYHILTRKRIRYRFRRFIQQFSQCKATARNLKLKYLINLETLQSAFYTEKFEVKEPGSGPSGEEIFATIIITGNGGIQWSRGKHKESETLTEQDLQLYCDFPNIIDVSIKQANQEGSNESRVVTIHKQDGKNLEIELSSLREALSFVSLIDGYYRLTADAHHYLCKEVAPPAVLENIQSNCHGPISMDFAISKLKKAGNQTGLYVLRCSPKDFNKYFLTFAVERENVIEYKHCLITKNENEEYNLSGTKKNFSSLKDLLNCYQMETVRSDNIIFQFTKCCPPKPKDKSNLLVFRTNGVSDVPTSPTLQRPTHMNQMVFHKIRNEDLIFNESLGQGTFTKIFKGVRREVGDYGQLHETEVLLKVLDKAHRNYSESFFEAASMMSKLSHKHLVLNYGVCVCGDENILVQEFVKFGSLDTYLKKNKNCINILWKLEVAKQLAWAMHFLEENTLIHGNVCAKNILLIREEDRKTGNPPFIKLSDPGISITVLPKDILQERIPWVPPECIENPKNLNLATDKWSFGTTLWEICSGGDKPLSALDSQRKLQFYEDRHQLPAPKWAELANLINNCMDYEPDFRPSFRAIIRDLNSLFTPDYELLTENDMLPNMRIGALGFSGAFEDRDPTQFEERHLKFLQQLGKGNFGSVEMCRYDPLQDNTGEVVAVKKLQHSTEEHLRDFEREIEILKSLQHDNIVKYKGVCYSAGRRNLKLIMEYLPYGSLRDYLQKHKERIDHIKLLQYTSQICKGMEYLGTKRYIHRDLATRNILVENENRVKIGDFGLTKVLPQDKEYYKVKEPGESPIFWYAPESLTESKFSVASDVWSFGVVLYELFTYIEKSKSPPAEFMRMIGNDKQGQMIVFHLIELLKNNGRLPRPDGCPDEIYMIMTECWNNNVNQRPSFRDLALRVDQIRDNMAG
T2 sequence (P23458 whole entry): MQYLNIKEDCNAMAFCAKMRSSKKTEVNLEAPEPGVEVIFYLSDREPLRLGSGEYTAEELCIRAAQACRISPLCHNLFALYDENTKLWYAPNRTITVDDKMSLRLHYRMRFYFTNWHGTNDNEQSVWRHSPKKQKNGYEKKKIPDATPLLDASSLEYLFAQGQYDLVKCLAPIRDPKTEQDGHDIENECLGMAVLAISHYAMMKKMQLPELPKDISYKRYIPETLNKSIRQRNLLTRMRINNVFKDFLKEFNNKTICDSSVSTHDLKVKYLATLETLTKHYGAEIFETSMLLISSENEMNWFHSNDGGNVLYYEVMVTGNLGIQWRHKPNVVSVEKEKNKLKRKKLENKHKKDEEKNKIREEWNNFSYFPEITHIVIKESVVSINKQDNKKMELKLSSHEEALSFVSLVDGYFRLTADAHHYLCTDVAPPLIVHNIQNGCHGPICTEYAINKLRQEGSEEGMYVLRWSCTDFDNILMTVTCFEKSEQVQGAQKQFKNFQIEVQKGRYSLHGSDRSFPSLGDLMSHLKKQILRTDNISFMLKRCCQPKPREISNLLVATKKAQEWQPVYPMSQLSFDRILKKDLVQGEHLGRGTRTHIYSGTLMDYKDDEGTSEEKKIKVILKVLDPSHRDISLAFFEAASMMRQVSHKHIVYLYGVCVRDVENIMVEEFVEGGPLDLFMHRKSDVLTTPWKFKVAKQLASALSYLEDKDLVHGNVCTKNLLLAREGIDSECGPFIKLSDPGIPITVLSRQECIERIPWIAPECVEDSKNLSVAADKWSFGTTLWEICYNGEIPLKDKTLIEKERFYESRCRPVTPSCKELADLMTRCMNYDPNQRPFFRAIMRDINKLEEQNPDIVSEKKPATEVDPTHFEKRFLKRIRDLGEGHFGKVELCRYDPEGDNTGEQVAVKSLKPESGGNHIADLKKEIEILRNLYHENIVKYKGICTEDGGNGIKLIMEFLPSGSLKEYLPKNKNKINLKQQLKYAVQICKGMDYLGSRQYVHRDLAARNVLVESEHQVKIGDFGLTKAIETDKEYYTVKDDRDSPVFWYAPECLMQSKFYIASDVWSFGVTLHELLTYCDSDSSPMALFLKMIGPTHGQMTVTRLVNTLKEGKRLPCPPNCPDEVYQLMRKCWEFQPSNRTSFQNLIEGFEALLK

Q: How did the inhibition at 1 µM (JAK2) turn out when CC(C1CC1)n1cc(-c2cc(N3CCOCC3)n(C)n2)c2[nH]nc(N)c2c1=O (racemic) [Example 4, 3-amino-5-(1-cyclopropylethyl)-7-(1-methyl-5-(morpholin-4-yl)-1H-pyrazol-3-yl)-1,5-dihydro-4H-pyrazolo[4,3-c]pyridin-4-one] was run?
A: 99%

Q: And the inhibition at 1 µM (JAK1)?
A: 99%

Q: And the inhibition at 1 µM (TYK2)?
A: 99%

Q: What about the inhibition at 1 µM (JAK3) of the same molecule?
A: 100%

Q: With Cn1nc(-c2cn(C3CCCC3(C)C)c(=O)c3c(N)n[nH]c23)cc1CN1CCS(=O)(=O)CC1 (racemic) [Example 72, 3-amino-5-(2,2-dimethylcyclopentyl)-7-(5-((1,1-dioxidothiomorpholin-4-yl)methyl)-1-methyl-1H-pyrazol-3-yl)-1,5-dihydro-4H-pyrazolo[4,3-c]pyridin-4-one] as the molecule, how does the inhibition at 1 µM (JAK2) read?
A: 100%

Q: And the inhibition at 1 µM (JAK1)?
A: 99%

Q: And the inhibition at 1 µM (TYK2)?
A: 100%

Q: What about the inhibition at 1 µM (JAK3) of the same molecule?
A: 100%

Q: Which inhibition at 1 µM (JAK2) does the source give for Cn1nc(-c2cn(C3CCCC3(C)C)c(=O)c3c(N)n[nH]c23)cc1N1CCOCC1 (racemic) [Example 73, 3-amino-5-(2,2-dimethylcyclopentyl)-7-(1-methyl-5-(morpholin-4-yl)-1H-pyrazol-3-yl)-1,5-dihydro-4H-pyrazolo[4,3-c]pyridin-4-one] here?
A: 99%

Q: And the inhibition at 1 µM (JAK1)?
A: 99%

Q: What about the inhibition at 1 µM (TYK2) of the same molecule?
A: 100%

Q: And the inhibition at 1 µM (JAK3)?
A: 100%

Q: Which inhibition at 1 µM (JAK2) does the source give for CC(C)C(C#N)n1cc(-c2cc(N3CCOCC3)n(C)n2)c2[nH]nc(N)c2c1=O (racemic) [Example 112, 2-(3-amino-7-(1-methyl-5-(morpholin-4-yl)-1H-pyrazol-3-yl)-4-oxo-1,4-dihydro-5H-pyrazolo[4,3-c]pyridin-5-yl)-3-methylbutanenitrile] here?
A: 98%

Q: What about the inhibition at 1 µM (JAK1) of the same molecule?
A: 98%

Q: And the inhibition at 1 µM (TYK2)?
A: 100%

Q: And the inhibition at 1 µM (JAK3)?
A: 99%

Q: For CC1CCCCC1n1cc(-c2cc(C(C)(C)O)n(C)n2)c2[nH]nc(N)c2c1=O (racemic) [Example 116, 3-amino-7-(5-(2-hydroxypropan-2-yl)-1-methyl-1H-pyrazol-3-yl)-5-(2-methylcyclohexyl)-1,5-dihydro-4H-pyrazolo[4,3-c]pyridin-4-one], which inhibition at 1 µM (JAK2) is on record?
A: 100%

Q: What about the inhibition at 1 µM (JAK1) of the same molecule?
A: 101%

Q: What about the inhibition at 1 µM (TYK2) of the same molecule?
A: 102%

Q: And the inhibition at 1 µM (JAK3)?
A: 101%

Q: For CC1CCCCC1n1cc(-c2cc(N3CCOCC3)n(C)n2)c2[nH]nc(N)c2c1=O (racemic) [Example 146, 3-amino-5-(2-methylcyclohexyl)-7-(1-methyl-5-(morpholin-4-yl)-1H-pyrazol-3-yl)-1,5-dihydro-4H-pyrazolo[4,3-c]pyridin-4-one], which inhibition at 1 µM (JAK2) is on record?
A: 99%

Q: And the inhibition at 1 µM (JAK1)?
A: 99%

Q: What about the inhibition at 1 µM (TYK2) of the same molecule?
A: 100%

Q: What about the inhibition at 1 µM (JAK3) of the same molecule?
A: 100%

Q: How did the inhibition at 1 µM (JAK2) turn out when CC(C)[C@H](C)n1cc(-c2cc(C(C)(C)O)n(C)n2)c2[nH]nc(N)c2c1=O [Example 1, 3-amino-7-(5-(2-hydroxypropan-2-yl)-1-methyl-1H-pyrazol-3-yl)-5-((2S)-3-methylbutan-2-yl)-1,5-dihydro-4H-pyrazolo[4,3-c]pyridin-4-one] was run?
A: 98%

Q: And the inhibition at 1 µM (JAK1)?
A: 97%

Q: What about the inhibition at 1 µM (TYK2) of the same molecule?
A: 99%

Q: And the inhibition at 1 µM (JAK3)?
A: 100%

Q: Which inhibition at 1 µM (JAK2) does the source give for CC(C)C(C)n1cc(-c2cc(C(C)(C)O)n(C)n2)c2[nH]nc(N)c2c1=O (centres unmarked) [Example 2, 3-amino-7-(5-(2-hydroxypropan-2-yl)-1-methyl-1H-pyrazol-3-yl)-5-(3-methylbutan-2-yl)-1,5-dihydro-4H-pyrazolo[4,3-c]pyridin-4-one] here?
A: 98%

Q: And the inhibition at 1 µM (JAK1)?
A: 97%

Q: And the inhibition at 1 µM (TYK2)?
A: 99%

Q: And the inhibition at 1 µM (JAK3)?
A: 99%

Q: With CC(C)[C@H](C)n1cc(-c2cc(C(C)(C)CO)n(C)n2)c2[nH]nc(N)c2c1=O [Example 3, 3-amino-7-(5-(1-hydroxy-2-methylpropan-2-yl)-1-methyl-1H-pyrazol-3-yl)-5-((2S)-3-methylbutan-2-yl)-1,5-dihydro-4H-pyrazolo[4,3-c]pyridin-4-one] as the molecule, how does the inhibition at 1 µM (JAK2) read?
A: 99%

Q: What about the inhibition at 1 µM (JAK1) of the same molecule?
A: 98%

Q: What about the inhibition at 1 µM (TYK2) of the same molecule?
A: 100%

Q: And the inhibition at 1 µM (JAK3)?
A: 100%

Q: C[C@@H](C1CC1)n1cc(-c2cc(N3CCOCC3)n(C)n2)c2[nH]nc(N)c2c1=O [Example 5, 3-amino-5-((1S)-1-cyclopropylethyl)-7-(1-methyl-5-(morpholin-4-yl)-1H-pyrazol-3-yl)-1,5-dihydro-4H-pyrazolo[4,3-c]pyridin-4-one] was tested. Which inhibition at 1 µM (JAK2) did it give?
A: 100%

Q: And the inhibition at 1 µM (JAK1)?
A: 99%

Q: And the inhibition at 1 µM (TYK2)?
A: 100%

Q: And the inhibition at 1 µM (JAK3)?
A: 100%

Q: C[C@H](C1CC1)n1cc(-c2cc(N3CCOCC3)n(C)n2)c2[nH]nc(N)c2c1=O [Example 6, 3-amino-5-((1R)-1-cyclopropylethyl)-7-(1-methyl-5-(morpholin-4-yl)-1H-pyrazol-3-yl)-1,5-dihydro-4H-pyrazolo[4,3-c]pyridin-4-one] was tested. Which inhibition at 1 µM (JAK2) did it give?
A: 93%

Q: What about the inhibition at 1 µM (JAK1) of the same molecule?
A: 96%

Q: And the inhibition at 1 µM (TYK2)?
A: 100%

Q: What about the inhibition at 1 µM (JAK3) of the same molecule?
A: 98%
